According to publication PMC3918733, “The Enzymatic Decolorization of Textile Dyes by the Immobilized Polyphenol Oxidase from Quince Leaves” (The Scientific World Journal, 2014):

Tested on: T1, polyphenol oxidase (PPO) from quince leaves
T1 construct: isoenzyme not identified; free enzyme
Assay: absorbance at […] nm, Lineweaver-Burk
Assay type: biochemical, Cydonia oblonga
Conditions: free enzyme, partially purified; optimum pH and temperature (pH 7.5, 30 °C), phosphate buffer

Work on `Oc1ccccc1O` [catechol] yielded a Km of 5.86 mM.
